Structures are written as SMILES. Where “and” joins values, the source holds several entries; their conditions need not be identical. Equal entries are not always repeated. Inconclusive results and toxic doses are left out.

This experiment concerns P388 leukemia ip, CD2F1 mice, survival T/C. In words: NCI In Vivo Anticancer Drug Screen. Data for tumor model P388 Leukemia (intraperitoneal) in CD2F1 (CDF1) mice. The following applies: endpoint: median survival time, higher = longer survival. Summed up:
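Mice carrying the transplanted tumor received test compound or vehicle. Survival was recorded in each group, and the value is the treated-group measurement divided by that of the vehicle-treated control group.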

Where [1] appears, read: dose: 50.0 mg/kg/injection, schedule: Q01DX009 (ip), vehicle: saline with Tween-80.
[2] abbreviates: dose: 100.0 mg/kg/injection, schedule: Q01DX009 (ip), vehicle: saline with Tween-80.
Where [3] appears, read: dose: 200.0 mg/kg/injection, schedule: Q01DX009 (ip), vehicle: saline with Tween-80.
The mark [4] stands for this setting: dose: 50.0 mg/kg/injection, schedule: Q01DX005 (ip), vehicle: saline with Tween-80.
[5] abbreviates: dose: 100.0 mg/kg/injection, schedule: Q01DX009 (ip), vehicle: saline.
The mark [6] stands for this setting: dose: 200.0 mg/kg/injection, schedule: Q01DX009 (ip), vehicle: saline.
Where [7] appears, read: dose: 400.0 mg/kg/injection, schedule: Q01DX009 (ip), vehicle: saline.

In the case of `CCOC(=O)C(CC(C)C)NC(=O)C(Cc1ccc(N(CCCl)CCCl)cc1)NC(C)=O` (configuration not stated), the T/C is, setting by setting: (dose: 0.25 mg/kg/injection, schedule: Q01DX009 (ip), vehicle: saline) 101 % of control; (dose: 0.5 mg/kg/injection, schedule: Q01DX009 (ip), vehicle: saline) 115 % of control; (dose: 1.0 mg/kg/injection, schedule: Q01DX009 (ip), vehicle: saline) 111 % of control; (dose: 2.0 mg/kg/injection, schedule: Q01DX009 (ip), vehicle: Klucel (hydroxypropylcellulose) (HPC)) 109 % of control; (dose: 2.0 mg/kg/injection, schedule: Q01DX009 (ip), vehicle: olive oil, sesame oil, peanut oil) 111 % of control; (dose: 2.0 mg/kg/injection, schedule: Q01DX009 (ip), vehicle: saline with Tween-80) 100 % of control. The T/C is, setting by setting: (dose: 4.0 mg/kg/injection, schedule: Q01DX009 (ip), vehicle: Klucel (hydroxypropylcellulose) (HPC)) 110 % of control; (dose: 4.0 mg/kg/injection, schedule: Q01DX009 (ip), vehicle: olive oil, sesame oil, peanut oil) 120 % of control; (dose: 4.0 mg/kg/injection, schedule: Q01DX009 (ip), vehicle: saline with Tween-80) 100 % of control; (dose: 8.0 mg/kg/injection, schedule: Q01DX009 (ip), vehicle: Klucel (hydroxypropylcellulose) (HPC)) 120 % of control; (dose: 8.0 mg/kg/injection, schedule: Q01DX009 (ip), vehicle: saline with Tween-80) 109 % of control; (dose: 8.0 mg/kg/injection, schedule: Q01DX009 (ip), vehicle: saline) 163 % of control. Besides, the T/C reads like this: (dose: 12.5 mg/kg/injection, schedule: Q01DX005 (iv), vehicle: Klucel (hydroxypropylcellulose) (HPC)) 116 % of control; (dose: 16.0 mg/kg/injection, schedule: Q01DX009 (ip), vehicle: saline with Tween-80) 111 % of control; (dose: 16.0 mg/kg/injection, schedule: Q01DX009 (ip), vehicle: saline) 163 % of control and 225 % of control; (dose: 16.0 mg/kg/injection, schedule: Q04DX003 (ip), vehicle: saline with Tween-80) 152 % of control; (dose: 18.9 mg/kg/injection, schedule: Q04DX003 (ip), vehicle: saline with Tween-80) 152 % of control; (dose: 25.0 mg/kg/injection, schedule: Q01DX005 (ip), vehicle: Klucel (hydroxypropylcellulose) (HPC)) 174 % of control. The T/C was 161 % of control (dose: 28.4 mg/kg/injection, schedule: Q04DX003 (ip), vehicle: saline with Tween-80); 172 % of control (dose: 32.0 mg/kg/injection, schedule: Q01DX009 (ip), vehicle: Klucel (hydroxypropylcellulose) (HPC)); 175 % of control (dose: 32.0 mg/kg/injection, schedule: Q01DX009 (ip), vehicle: olive oil, sesame oil, peanut oil); 117 % of control (dose: 32.0 mg/kg/injection, schedule: Q01DX009 (ip), vehicle: saline with Tween-80); 189 % of control (dose: 32.0 mg/kg/injection, schedule: Q04DX003 (ip), vehicle: saline with Tween-80); 172 % of control (dose: 42.6 mg/kg/injection, schedule: Q04DX003 (ip), vehicle: saline with Tween-80). The T/C is 230 % of control (dose: 50.0 mg/kg/injection, schedule: Q01DX005 (ip), vehicle: Klucel (hydroxypropylcellulose) (HPC)); 156 % of control (dose: 50.0 mg/kg/injection, schedule: Q01DX005 (iv), vehicle: Klucel (hydroxypropylcellulose) (HPC)); 151 % of control (dose: 64.0 mg/kg/injection, schedule: Q01DX009 (ip), vehicle: Klucel (hydroxypropylcellulose) (HPC)); 188 % of control and 211 % of control (dose: 64.0 mg/kg/injection, schedule: Q04DX003 (ip), vehicle: saline with Tween-80); 170 % of control (dose: 96.0 mg/kg/injection, schedule: Q04DX003 (ip), vehicle: saline with Tween-80); 152 % of control (dose: 128.0 mg/kg/injection, schedule: Q01DX009 (ip), vehicle: saline with Tween-80). The T/C is, setting by setting: (dose: 256.0 mg/kg/injection, schedule: Q01DX009 (ip), vehicle: other) 151 % of control; (dose: 256.0 mg/kg/injection, schedule: Q01DX009 (ip), vehicle: saline with Tween-80) 152 % of control and 157 % of control; (dose: 512.0 mg/kg/injection, schedule: Q01DX009 (ip), vehicle: other) 179 % of control; (dose: 512.0 mg/kg/injection, schedule: Q01DX009 (ip), vehicle: saline with Tween-80) 185 % of control.
With `CCN(CC)CCCC(C)Nc1cc(OC)c2nc(C)cc(OC)c2c1OC` (configuration not stated), the T/C runs as follows: (dose: 1.56 mg/kg/injection, schedule: Q01DX009 (ip), vehicle: saline) 100 % of control; (dose: 3.12 mg/kg/injection, schedule: Q01DX009 (ip), vehicle: saline) 89 % of control; (dose: 6.25 mg/kg/injection, schedule: Q01DX009 (ip), vehicle: saline) 91 % of control and 97 % of control.
For `CC(=O)n1[nH]c(=O)ccc1=O`, the T/C was 115 % of control (dose: 100.0 mg/kg/injection, schedule: Q04DX003 (ip), vehicle: saline); 107 % of control (dose: 200.0 mg/kg/injection, schedule: Q04DX003 (ip), vehicle: saline); 115 % of control (dose: 400.0 mg/kg/injection, schedule: Q04DX003 (ip), vehicle: saline).
As to `CC1CC(=O)Nc2ncnc(N)c21` (configuration not stated), the T/C is 98 % of control (dose: 60.0 mg/kg/injection, schedule: Q01DX005 (ip), vehicle: saline with Tween-80); 106 % of control (dose: 120.0 mg/kg/injection, schedule: Q01DX005 (ip), vehicle: saline with Tween-80); 108 % of control (dose: 240.0 mg/kg/injection, schedule: Q01DX005 (ip), vehicle: saline with Tween-80).
On to `c1cnc2ncncc2n1`, for which the T/C is 104 % of control and 111 % of control under setting [1]; 120 % of control under setting [2]; 150 % of control under setting [3].
For `CCC(=O)OCC1OC(OC2c3cc4c(cc3C(c3cc(OC)c(OC)c(OC)c3)C3C(=O)OCC23)OCO4)C(OC(=O)CC)C(OC(=O)CC)C1OC(=O)CC` (configuration not stated), the T/C is 98 % of control (dose: 12.5 mg/kg/injection, schedule: Q01DX005 (ip), vehicle: saline with Tween-80); 91 % of control (dose: 25.0 mg/kg/injection, schedule: Q01DX005 (ip), vehicle: saline with Tween-80); 88 % of control and 89 % of control under setting [4].
With `COc1cc(CN)ccc1O`, the T/C under setting [1] is 103 % of control; the T/C under setting [2] was 110 % of control; the T/C under setting [5] was 104 % of control; the T/C under setting [3] is 103 % of control; the T/C under setting [6] was 101 % of control; the T/C (dose: 400.0 mg/kg/injection, schedule: Q01DX009 (ip), vehicle: saline with Tween-80) was 104 % of control. In addition, the T/C by setting is: under setting [7], 104 % of control; (dose: 600.0 mg/kg/injection, schedule: Q01DX009 (ip), vehicle: saline) 107 % of control.
For the compound `Cn1c(=O)c2[nH]c(-c3c[nH]c4ccccc34)nc2n(C)c1=O`, the T/C is, setting by setting: (dose: 100.0 mg/kg/injection, schedule: Q04DX003 (ip), vehicle: saline with Tween-80) 89 % of control; (dose: 200.0 mg/kg/injection, schedule: Q04DX003 (ip), vehicle: saline with Tween-80) 89 % of control; (dose: 400.0 mg/kg/injection, schedule: Q04DX003 (ip), vehicle: saline with Tween-80) 86 % of control.
`CC1(C)CC(=O)C(=N/O)/C(=N\NC(N)=S)C1`: the T/C is 102 % of control under setting [4]; 103 % of control (dose: 100.0 mg/kg/injection, schedule: Q01DX005 (ip), vehicle: saline with Tween-80); 110 % of control (dose: 200.0 mg/kg/injection, schedule: Q01DX005 (ip), vehicle: saline with Tween-80).
`NCCC(N)=O`: the T/C by setting is: under setting [5], 100 % of control; (dose: 100.0 mg/kg/injection, schedule: Q04DX003 (ip), vehicle: saline sonified) 109 % of control; under setting [6], 95 % of control; (dose: 200.0 mg/kg/injection, schedule: Q04DX003 (ip), vehicle: saline sonified) 100 % of control; under setting [7], 100 % of control; (dose: 400.0 mg/kg/injection, schedule: Q04DX003 (ip), vehicle: saline sonified) 100 % of control.
For the compound `O=C(NC(Sc1ccc(Cl)cc1)C(=O)O)c1ccccc1` (configuration not stated), the T/C was 104 % of control (dose: 50.0 mg/kg/injection, schedule: Q01DX009 (ip), vehicle: Klucel (hydroxypropylcellulose) (HPC)); 94 % of control (dose: 100.0 mg/kg/injection, schedule: Q01DX009 (ip), vehicle: Klucel (hydroxypropylcellulose) (HPC)); 94 % of control (dose: 200.0 mg/kg/injection, schedule: Q01DX009 (ip), vehicle: Klucel (hydroxypropylcellulose) (HPC)).
